pIC50: −log10 of the molar value. Like-named read-outs stand apart in the source and are kept apart here.
Columns and labels:
UM-UC-9 engineered cells = experiment: Cell proliferation / short-term viability assay, CellTiter-Glo 144 h; assay type: cell-based, human; details: read-out: CTGlo 144 h UMUC9.5, G150
How it was run: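 UM-UC-9 engineered assay-ready cells seeded at 500 cells/well in high-glucose DMEM/10% FBS, treated from dose-response plates, grown at 37° C, 5% CO2. CellTiter-Glo 2.0 luminescence read on day 7, with a day-0 pretreatment plate as T0 reference and DMSO wells as negative control.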

His6-TEV-PPARγ-(234-505) = target: T1, His6-TEV-PPARγ-(234-505) (Homo sapiens, UniProt P37231); experiment: TR-FRET Assay to Measure Co-R Peptide Recruitment to PPARγ; assay type: biochemical; details: Co-R peptide (SMRT-ID2) recruitment; top final concentration 20 μM; read-out: TR-FRET i-Ag; AC50
T1 construct: The His6-TEV-PPARγ-(234-505) protein for assay was expressed and purified; TEV cleavage site (N); made in house
T1 sequence (P37231 234-505): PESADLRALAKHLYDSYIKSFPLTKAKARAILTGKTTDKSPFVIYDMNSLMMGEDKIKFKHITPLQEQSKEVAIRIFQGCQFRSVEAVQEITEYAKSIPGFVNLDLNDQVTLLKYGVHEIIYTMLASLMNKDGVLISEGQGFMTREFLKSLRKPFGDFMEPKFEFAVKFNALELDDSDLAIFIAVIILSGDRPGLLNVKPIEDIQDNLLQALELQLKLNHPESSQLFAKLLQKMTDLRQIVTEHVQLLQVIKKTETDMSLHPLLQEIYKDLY
How it was run: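 His-tagged PPARγ (or controls) was preincubated with compound for 20 minutes at room temperature, then 5 nM anti-His terbium antibody and 200 nM FITC-labeled SMRT-ID2 corepressor peptide (final) were added for a further hour. TR-FRET signal was normalized to percent response using 500 nM T0070907 and DMSO controls.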

Row | Compound | AC50 (His6-TEV-PPARγ-(234-505)) [nM] | pIC50 (UM-UC-9 engineered cells; Homo sapiens, UM-UC-9, 144 h) | pIC50 (UM-UC-9 engineered cells)
1 | COc1cc(-c2cc(C(=O)N3[C@@H]4CC[C@H]3C[C@H](C(=O)NC3CCC5(CCO5)CC3)C4)n[nH]2)c(F)cn1 (mixture of isomers) [Example 297, (1R,3S,5S)-8-[5-(5-fluoro-2-methoxypyridin-4-yl)-1H-pyrazole-3-carbonyl]-N-[1-oxaspiro[3.5]nonan-7-yl]-8-azabicyclo[3.2.1]octane-3-carboxamide] | 120 | 6.42 | 
2 | (S)—N-((4S,7r)-3,3-difluoro-1-oxaspiro[3.5]nonan-7-yl)-4-(5-(5-fluoro-2-methoxypyridin-4-yl)-1H-pyrazole-3-carbonyl)-4-azaspiro[2.5]octane-7-carboxamide and (S)—N-((4R,7s)-3,3-difluoro-1-oxaspiro[3.5]nonan-7-yl)-4-(5-(5-fluoro-2-methoxypyridin-4-yl)-1H-pyrazole-3-carbonyl)-4-azaspiro[2.5]octane-7-carboxamide [Example 374] | 13.1 |  | 7.80
3 | COc1cc(-c2cc(C(=O)N3[C@@H]4CC[C@H]3C[C@H](C(=O)NC3CCC5(CC3)OCCC5(F)F)C4)n[nH]2)c(F)cn1 (mixture of isomers) [Example 320, (1R,3s,5S)—N-(4,4-difluoro-1-oxaspiro[4.5]decan-8-yl)-8-(5-(5-fluoro-2-methoxypyridin-4-yl)-1H-pyrazole-3-carbonyl)-8-azabicyclo[3.2.1]octane-3-carboxamide] | 10.4 | 7.53 | 
4 | COc1cc(-c2cc(C(=O)N3CCC(C(=O)NC4COC(C)OC4)CC3)n[nH]2)c(Cl)cn1 (mixture of isomers) [Example 121, 1-[5-(5-Chloro-2-methoxypyridin-4-yl)-1H-pyrazole-3-carbonyl]-N-(2-methyl-1,3-dioxan-5-yl) piperidine-4-carboxamide] | 807 | 5.65 | 
5 | COc1cc(-c2cc(C(=O)N3CCC(NC(=O)C4CCC(O)(C(F)(F)F)CC4)CC34CC4)n[nH]2)c(F)cn1 (single isomer, unassigned) [Example 347-A] | 81.6 |  | 6.40
6 | COc1cc(-c2cc(C(=O)N3CCC(C(=O)NCc4cn5cccc(F)c5n4)CC3)n[nH]2)c(Cl)cn1 [Example 214, 1-(5-(5-chloro-2-methoxypyridin-4-yl)-1H-pyrazole-3-carbonyl)-N-((8-fluoroimidazo[1,2-a]pyridin-2-yl)methyl)piperidine-4-carboxamide] | 194 | 5.80 | 
7 | COc1cc(-c2cc(C(=O)N3CCC(C(=O)NCc4ccc5c(c4)CCS5(=O)=O)CC3)n[nH]2)c(Cl)cn1 [Example 237, 1-(5-(5-chloro-2-methoxypyridin-4-yl)-1H-pyrazole-3-carbonyl)-N-((1,1-dioxido-2,3-dihydrobenzo[b]thiophen-5-yl)methyl)piperidine-4-carboxamide] | 722 | < 5.00 | 
8 | COc1cc(-c2cc(C(=O)N3CCC(C(=O)NC4(C#N)CCC4)CC3)n[nH]2)c(Cl)cn1 [Example 128, 1-(5-(5-chloro-2-methoxypyridin-4-yl)-1H-pyrazole-3-carbonyl)-N-(1-cyanocyclobutyl)piperidine-4-carboxamide] | 864 | 5.59 | 
9 | COc1cc(-c2cc(C(=O)N3CCC(C(=O)NCc4cccc(Cl)c4)CC3)n[nH]2)c(F)cn1 [Example 159, N-(3-chlorobenzyl)-1-(5-(5-fluoro-2-methoxypyridin-4-yl)-1H-pyrazole-3-carbonyl)piperidine-4-carboxamide] | 27.1 | 7.20 | 
10 | COc1cc(-c2cc(C(=O)N3CCC(C(=O)NCc4ccc5c(c4)CC(=O)N5)CC3)n[nH]2)c(Cl)cn1 [Example 167, 1-(5-(5-chloro-2-methoxypyridin-4-yl)-1H-pyrazole-3-carbonyl)-N-((2-oxoindolin-5-yl)methyl)piperidine-4-carboxamide] | 112 | 5.39 | 
11 | COc1cc(-c2cc(C(=O)N3CCC(C(=O)NCC45CC(CCO4)C5)CC3)n[nH]2)c(Cl)cn1 [Example 230] | 134 | 6.16 | 
12 | COc1cc(-c2cc(C(=O)N3CCC(C(=O)NC4CS(=O)(=O)N(C)c5ccccc54)CC3)n[nH]2)c(Cl)cn1 (racemic) [Example 231, 1-(5-(5-chloro-2-methoxypyridin-4-yl)-1H-pyrazole-3-carbonyl)-N-(1-methyl-2,2-dioxido-3,4-dihydro-1H-benzo[c][1,2]thiazin-4-yl)piperidine-4-carboxamide] | 999 | 5.26 | 
13 | COc1cc(-c2cc(C(=O)N3CCC(C(=O)NC4CCN(c5ccccc5)CC4)CC3)n[nH]2)c(Cl)cn1 [Example 196, 1-(5-(5-chloro-2-methoxypyridin-4-yl)-1H-pyrazole-3-carbonyl)-N-(1-phenylpiperidin-4-yl)piperidine-4-carboxamide] | 610 | 5.99 | 
14 | COc1cc(-c2cc(C(=O)N3CCC(C(=O)NCc4cccc5[nH]ccc45)CC3)n[nH]2)c(Cl)cn1 [Example 190, N-((1H-indol-4-yl)methyl)-1-(5-(5-chloro-2-methoxypyridin-4-yl)-1H-pyrazole-3-carbonyl)piperidine-4-carboxamide] | 24 | 7.04 | 

Further lines, with some results ahead:

Row | AC50 (His6-TEV-PPARγ-(234-505)) [nM] | Compound | pIC50 (UM-UC-9 engineered cells; Homo sapiens, UM-UC-9, 144 h) | pIC50 (UM-UC-9 engineered cells)
15 | 13.1 | COc1cc(-c2cc(C(=O)N3CC[C@H](C(=O)NCc4ncc(C(C)(C)O)cc4Cl)CC34CC4)n[nH]2)c(F)cn1 [Example 364, (S)—N-((3-chloro-5-(2-hydroxypropan-2-yl)pyridin-2-yl)methyl)-4-(5-(5-fluoro-2-methoxypyridin-4-yl)-1H-pyrazole-3-carbonyl)-4-azaspiro[2.5]octane-7-carboxamide] | 7.25 | 
16 | 246 | COc1cc(-c2cc(C(=O)N3CCC(C(=O)NCc4cccc(C(F)F)n4)CC3)n[nH]2)c(Cl)cn1 [Example 239, 1-(5-(5-chloro-2-methoxypyridin-4-yl)-1H-pyrazole-3-carbonyl)-N-((6-(difluoromethyl)pyridin-2-yl)methyl)piperidine-4-carboxamide] | 5.85 | 
17 | 4.1 | COc1cc(-c2cc(C(=O)N3CC[C@H](C(=O)NCc4nccnc4C(F)(F)F)CC34CC4)n[nH]2)c(F)cn1 [Example 432, (S)-4-(5-(5-fluoro-2-methoxypyridin-4-yl)-1H-pyrazole-3-carbonyl)-N-((3-(trifluoromethyl)pyrazin-2-yl)methyl)-4-azaspiro[2.5]octane-7-carboxamide] | 8.04 | 
18 | 2510 | COc1cc(-c2cc(C(=O)N3CC[C@H](C(=O)NC4CCN(CCF)C(C)(C)C4)CC34CC4)n[nH]2)c(F)cn1 (single isomer, unassigned) [Example 425-A] |  | < 5.00
19 | 172 | CCO[C@]1(C(F)(F)F)CC[C@@H](NC(=O)[C@@H]2CCN(C(=O)c3cc(-c4cc(OC)ncc4F)[nH]n3)C3(CC3)C2)CC1 (single isomer, unassigned) [Example 312-A] | 6.31 | 
20 | 6.6 | COc1cc(-c2cc(C(=O)N3CC[C@H](C(=O)N[C@H]4CC[C@@](OC[C@H](C)O)(C(F)(F)F)CC4)CC34CC4)n[nH]2)c(F)cn1 [Example 353, (S)-4-(5-(5-fluoro-2-methoxypyridin-4-yl)-1H-pyrazole-3-carbonyl)-N-((1S,4S)-4-((S)-2-hydroxypropoxy)-4-(trifluoromethyl)cyclohexyl)-4-azaspiro[2.5]octane-7-carboxamide] | 8.22 | 
21 | 100 | COc1cc(-c2cc(C(=O)N3CC[C@H](C(=O)NC4CCN(CC5(O)COC5)C4)CC34CC4)n[nH]2)c(F)cn1 (single isomer, unassigned) [Example 454-B] |  | 5.73
22 | 29.2 | Cc1cc(-c2cc(C(=O)N3CCC(C(=O)NCc4cccc(Cl)c4)CC3)n[nH]2)c(Cl)cn1 [Example 262, 1-[5-(5-chloro-2-methylpyridin-4-yl)-1H-pyrazole-3-carbonyl]-N-[(3-chlorophenyl)methyl]piperidine-4-carboxamide] | 6.48 | 
23 | 0.3 | COc1cc(-c2cc(C(=O)N3CC[C@H](C(=O)NCc4ncc(OC(C)C)cc4Cl)CC34CC4)n[nH]2)c(F)cn1 [Example 491, (S)—N-((3-chloro-5-isopropoxypyridin-2-yl)methyl)-4-(5-(5-fluoro-2-methoxypyridin-4-yl)-1H-pyrazole-3-carbonyl)-4-azaspiro[2.5]octane-7-carboxamide] | 7.96 | 
24 | 970 | COc1cc(-c2cc(C(=O)N3CCC(C(=O)Nc4cnc(C)c(C)n4)CC3)n[nH]2)c(Cl)cn1 [Example 260, 1-(5-(5-chloro-2-methoxypyridin-4-yl)-1H-pyrazole-3-carbonyl)-N-(5,6-dimethylpyrazin-2-yl)piperidine-4-carboxamide] | 5.39 | 

From US12606541B2, “PPARg modulators and methods of use” (Eisai R&D Management Co., Ltd., priority 2020, dated 2026)
